Measurements published in patent US8609719B2, “Propargylated aminoindans, processes for preparation, and uses thereof” (priority 2006, dated 2013).
Where a name gives a salt, the structure may show the parent alone.

Legend:
[1] = Pharmacokinetic analysis of ladostigil and metabolites in Alzheimer's disease patients; conditions: human, in vivo, 100 mg; for Cmax / AUC / AUC(0-t): after ladostigil tartrate 100 mg twice daily; for concentration at 12 h: mean concentration at pre-dose, 12 hours after the previous dose of ladostigil tartrate; for AUC: AUC (M)
MAO-A = molecular target: T1, MAO-A (Rattus norvegicus, UniProt P21396); assay: Inhibition of MAO activity in vitro (5-HT substrate); type: biochemical
T1 construct: from tissue; host or cells: brain, liver and intestine (duodenum) of dosed rats
T1 sequence (P21396 1-526): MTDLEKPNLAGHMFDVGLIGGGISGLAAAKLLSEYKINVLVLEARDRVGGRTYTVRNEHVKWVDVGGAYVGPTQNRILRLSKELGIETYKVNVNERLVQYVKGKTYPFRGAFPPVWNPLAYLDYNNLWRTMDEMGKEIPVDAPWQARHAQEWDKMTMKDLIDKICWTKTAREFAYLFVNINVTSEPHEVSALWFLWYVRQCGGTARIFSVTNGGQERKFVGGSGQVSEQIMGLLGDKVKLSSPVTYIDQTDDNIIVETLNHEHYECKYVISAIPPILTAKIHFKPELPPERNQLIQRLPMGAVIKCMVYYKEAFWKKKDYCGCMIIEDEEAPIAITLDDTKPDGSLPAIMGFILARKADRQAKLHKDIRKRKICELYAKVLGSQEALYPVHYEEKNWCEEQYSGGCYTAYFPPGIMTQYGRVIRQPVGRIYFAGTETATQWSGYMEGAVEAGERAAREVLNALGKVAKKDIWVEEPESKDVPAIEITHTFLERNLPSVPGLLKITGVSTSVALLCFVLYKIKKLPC
Procedure: The MAO enzyme source was a homogenate of rat brain in 0.3M sucrose. The homogenate was diluted appropriately, and pre-incubated with serial dilutions of test compounds—diluted in phosphate buffer containing clogyline when 2-phenylethylamine (PEA) is the substrate, and diluted in phosphate buffer containing selegiline when 5-hydroxytryptamine (5-HT) is the substrate—for 60 minutes at 37° C. 14C-Labeled substrates (PEA for MAO-B determination and 5-HT for MAO-A determination) were then added, and the incubation continued for a further 20 minutes (PEA) or 30 minutes (5-HT). Substrate concentrations used were 10 μM (PEA) and 100 uM (5-HT). Enzyme concentration was chosen so that not more than 10% of the substrate was metabolized during the course of the reaction. Deaminated products were extracted into toluene-ethyl acetate (1:1 v/v) containing 0.4% (w/v) 2,5-diphenyloxazole (ppo) prior to determination by liquid scintillation counting. Radioactivity in the eluate indicated the production of neutral and acidic metabolites formed as a result of MAO activity. Activity of MAO in the sample was expressed as a percentage of control activity in the absence of inhibitor after subtraction of appropriate blank values. The activity determined using PEA as substrate is referred to as MAO-B, and that determined using 5-HT as MAO-A.
Concentrations of each inhibitor producing 50% inhibition of substrate metabolism (IC50) were calculated from the inhibition curves, and are shown in Table 1.

[2] = both, Cmax (M), mean, mean of patients, maintenance analysis Week 4
[3] = both, Cmax (T), mean, mean of patients, termination analysis Week 9
[4] = both, Cmin (M), mean of patients, maintenance analysis Week 4
[5] = both, Cmin (T), mean of patients, termination analysis Week 9
[6] = Patient 1, maintenance analysis Week 4
[7] = Patient 2, maintenance analysis Week 4
[8] = Patient 3, maintenance analysis Week 4
[9] = Patient 4, maintenance analysis Week 4
[10] = Patient 5, maintenance analysis Week 4
[11] = Patient 6, maintenance analysis Week 4
[12] = Patient 7, maintenance analysis Week 4
[13] = Patient 8, maintenance analysis Week 4
[14] = Patient 1, termination analysis Week 9
[15] = Patient 2, termination analysis Week 9
[16] = Patient 3, termination analysis Week 9
[17] = Patient 4, termination analysis Week 9
[18] = Patient 5, termination analysis Week 9
[19] = Patient 6, termination analysis Week 9
[20] = Patient 7, termination analysis Week 9
[21] = Patient 8, termination analysis Week 9
[22] = Cmax (M), Patient 1, maintenance analysis Week 4
[23] = Cmax (M), Patient 2, maintenance analysis Week 4
[24] = Cmax (M), Patient 3, maintenance analysis Week 4
[25] = Cmax (M), Patient 4, maintenance analysis Week 4
[26] = Cmax (M), Patient 5, maintenance analysis Week 4
[27] = Cmax (M), Patient 6, maintenance analysis Week 4
[28] = Cmax (M), Patient 7, maintenance analysis Week 4
[29] = Cmax (M), Patient 8, maintenance analysis Week 4
[30] = Cmax (T), Patient 1, termination analysis Week 9
[31] = Cmax (T), Patient 2, termination analysis Week 9
[32] = Cmax (T), Patient 3, termination analysis Week 9
[33] = Cmax (T), Patient 4, termination analysis Week 9
[34] = Cmax (T), Patient 5, termination analysis Week 9
[35] = Cmax (T), Patient 6, termination analysis Week 9
[36] = Cmax (T), Patient 7, termination analysis Week 9
[37] = Cmax (T), Patient 8, termination analysis Week 9

Structure (SMILES) | half-life ([1]; both) [h] | Cmax [1, 2] [M] | Cmax [1, 3] [M] | concentration at 12 h [1, 4] [M] | concentration at 12 h [1, 5] [M] | AUC [1, 6] [ng·h/mL] | AUC [1, 7] [ng·h/mL] | AUC [1, 8] [ng·h/mL] | AUC [1, 9] [ng·h/mL] | AUC [1, 10] [ng·h/mL] | AUC [1, 11] [ng·h/mL] | AUC [1, 12] [ng·h/mL] | AUC [1, 13] [ng·h/mL] | AUC(0-t) [1, 14] [ng·h/mL] | AUC(0-t) [1, 15] [ng·h/mL] | AUC(0-t) [1, 16] [ng·h/mL] | AUC(0-t) [1, 17] [ng·h/mL] | AUC(0-t) [1, 18] [ng·h/mL] | AUC(0-t) [1, 19] [ng·h/mL] | AUC(0-t) [1, 20] [ng·h/mL] | further results
CNC(=O)Oc1ccc2c(c1)[C@H](N)CC2 [R-MCAI, Methyl-carbamic acid 3-R-amino-indan-5-yl ester hydrochloride] | 8.09 | 2.7e-07 | 2.61e-07 | 1.53e-07 | 1.39e-07 | 62 | 121 | 172 | 191 | 171 | 144 | 213 | 86 | 570 | 733 | 958 | 672 | 895 | 964 | 186 | AUC(0-t) [1, 21]: 426 ng·h/mL; Cmax [1, 22]: 1e-07 M; Cmax [1, 23]: 2e-07 M; Cmax [1, 24]: 3e-07 M; Cmax [1, 25]: 3e-07 M; Cmax [1, 26]: 3e-07 M; Cmax [1, 27]: 3e-07 M; Cmax [1, 28]: 4e-07 M; Cmax [1, 29]: 2e-07 M; Cmax [1, 30]: 2e-07 M; Cmax [1, 31]: 2e-07 M; Cmax [1, 32]: 3e-07 M; Cmax [1, 33]: 2e-07 M; Cmax [1, 34]: 4e-07 M; Cmax [1, 35]: 3e-07 M; Cmax [1, 36]: 2e-07 M; Cmax [1, 37]: 2e-07 M; IC50 (MAO-A): 32.2 µM
C#CCN[C@@H]1CCc2ccc(OC(=O)NC)cc21 [R-MCPAI, Methyl-carbamic acid 3-R-(prop-2-ynylamino)-indan-5-yl ester hydrochloride] | 1.39 | 1.29e-06 | 1.07e-06 | 1.74e-08 | 1.32e-08 | 684 | 103 | 596 | 764 | 491 | 630 | 212 | 304 | 493 | 789 | 621 | 487 | 551 | 947 | 584 | AUC(0-t) [1, 21]: 343 ng·h/mL; Cmax [1, 22]: 1.8e-06 M; Cmax [1, 23]: 3e-07 M; Cmax [1, 24]: 1.2e-06 M; Cmax [1, 25]: 3e-06 M; Cmax [1, 26]: 1.5e-06 M; Cmax [1, 27]: 1.3e-06 M; Cmax [1, 28]: 5e-07 M; Cmax [1, 29]: 7e-07 M; Cmax [1, 30]: 1.3e-06 M; Cmax [1, 31]: 1e-06 M; Cmax [1, 32]: 1e-06 M; Cmax [1, 33]: 1.1e-06 M; Cmax [1, 34]: 1.3e-06 M; Cmax [1, 35]: 1.3e-06 M; Cmax [1, 36]: 1e-06 M; Cmax [1, 37]: 6e-07 M; IC50 (MAO-A): 37 µM
